# Results taken from patent US7105521B2, “Eugenosedin-A based pharmacoligical agents” (Syn-Tech Chem & Pharm Co., Ltd., priority 2003, dated 2006).
# Assays:
# IL-1β = assay: Plasma cytokine immunoreactivity after LPS: IL-1β; assay type: in vivo, Wistar rats; settings: 3 hours after LPS 10 mg kg^−1 i.v.; pretreatment (eugenosedin-A 1 mg kg^−1 i.v.)
# Procedure: (§1) Plasma cytokine immunoreactivity and blood glucose. Blood was collected from venous cannula, injected into ice-cold heparinized Eppendorf tubes and centrifuged at 1500 rpm for 10 min at 4° C. Plasma supernatant was stored at −70° C. until analyzed. Solid phase enzyme immunoassay that specifically detects murine IL-1β, IL-6, IFN-γ and TNF-α was used with a detection limit of >10 pg/ml (Endogen, U.S.A). Pretreatment with eugenosedin-A and other agents was performed 15 minutes before intravenous injection of LPS. Blood was collected from venous cannula. Blood glucose was measured with a glucose test strip (Glucotide, Bayer, U.S.A) at 1, 3 and 5 hours.
# LPS-induced hypotension = assay type: in vivo, Wistar rats; settings: LPS 10 mg kg^−1 i.v.; for LPS-induced hypotension: 15 mg kg^−1 i.v.; for development of hypotension after LPS injection and normalization of BP: i.v. pretreatment; for second prolonged hypotensive phase after LPS: pretreatment 0.5 and 1 mg kg^−1 i.v.
# Procedure: Intravenous injection. The experiments were carried out as previously described (Wu B N. et al., Biochem. Pharmacol., 48:101–109, 1994). In brief, Wistar rats weighing 250–300 grams were anesthetized with pentobarbital sodium (50 mg kg^−1, i.p.). Following tracheal cannulation, systemic arterial BP and HR were recorded from the femoral artery by a pressure transducer (model P10EZ; Spectramed, Oxnard, Calif., U.S.A.) connected to a recorder (GOULD, Valley View, Ohio, Model P50). Body temperature was maintained at 37° C. by an electric heating pad. A femoral vein was cannulated for intravenous injection of drugs and LPS (10 mg kg^−1).
# TNF-α = assay: Plasma cytokine immunoreactivity after LPS: TNF-α; assay type: in vivo, Wistar rats
# Procedure: as §1
# IFN-γ = assay: Plasma cytokine immunoreactivity after LPS: IFN-γ; assay type: in vivo, Wistar rats; settings: 1 hour after LPS administration
# Procedure: as §1
# Blood glucose after LPS = assay type: in vivo, Wistar rats; settings: for initial hyperglycemic response to LPS: blood glucose at 1 and 3 hours after LPS; for hypoglycemic response to LPS: blood glucose at 5 hours after LPS
# Procedure: as §1
# α1 receptors = assay: Receptor binding, [3H]prazosin, rat cortex; parameters: species or system Wistar rat
# Procedure: (§2) Drugs and chemicals. […] Eugenosedin-A synthesized in this laboratory was solvated in 50% absolute alcohol, 10% propylene glycol and further diluted with distilled water. All of the [^3H] ligand was purchased from New England Nuclear Corp. (Boston, Mass., U.S.A.).
# (§3) Receptor binding studies. […] The homogenate was pressure filtered through muslin. Filtrate was centrifuged at 1000 g for 10 min. Supernatant was centrifuged at 10,000 g for 12 min at 4° C. The second supernatant was centrifuged at 30,000 g for 15 min at 4° C. The final pellet was re-suspended in assay buffer (75 mM Tris HCl, 25 mM MgCl2, pH 7.4). Protein content was determined by Bradford's method. Radioligand agents and membranes (200–300 μg) were incubated for 60 min at 25° C. with or without the addition of nonspecific binding agents, in a 75 mM Tris HCl buffer with 25 mM MgCl2, to make a final volume of 500 μl. In competitive-binding experiments, the competing agent was added directly to the incubation mixture. Incubation was terminated by addition of 1 ml of ice-cold assay buffer followed by immediate filtration through Whatman GF/C glass fiber filters supported on a 12-port filter manifold (Millipore). The filters were immediately washed 3 times with 5 ml of ice-cold assay buffer and dried in an oven at 60° C. for 2 hours before adding 5 ml of Triton-toluene-based scintillation fluid. Membrane-bound radioligand trapped in the filters was counted in a Beckman LS6500 scintillation system (Fullerton, Calif., U.S.A) with an efficiency of 45%. In each experiment, nonspecifically bound radioligand agents were determined by incubating membrane protein. Specific binding for each sample was obtained by deducting this value from the total binding of radioligand agents.
# 5-HT2A receptor = 5-HT2A receptor (Rattus norvegicus, UniProt P14842); assay: Receptor binding, [3H]ketanserin, rat cortex; parameters: from tissue; host or cells: Wistar rat cortex membranes; species or system Wistar rat; settings: [3H]ketanserin, rat cortex
# 5-HT2A receptor, sequence (P14842 whole entry): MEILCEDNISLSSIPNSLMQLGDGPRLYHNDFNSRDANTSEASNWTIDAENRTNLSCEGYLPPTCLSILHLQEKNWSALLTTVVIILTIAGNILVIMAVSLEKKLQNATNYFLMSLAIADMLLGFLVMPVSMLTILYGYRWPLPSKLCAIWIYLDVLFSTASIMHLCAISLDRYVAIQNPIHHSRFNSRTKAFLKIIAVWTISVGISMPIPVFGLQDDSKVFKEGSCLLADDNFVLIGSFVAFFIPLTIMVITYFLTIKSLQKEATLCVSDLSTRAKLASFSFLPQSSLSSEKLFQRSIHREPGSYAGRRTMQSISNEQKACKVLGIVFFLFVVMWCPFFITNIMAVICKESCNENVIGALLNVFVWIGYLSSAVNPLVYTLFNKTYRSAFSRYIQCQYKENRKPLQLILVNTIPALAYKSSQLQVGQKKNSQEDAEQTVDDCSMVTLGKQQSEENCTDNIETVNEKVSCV
# Procedure: as §2, §3
# α2 receptors = assay: Receptor binding, [3H]yohimbine, rat cortex; parameters: species or system Wistar rat
# Procedure: as §2, §3
# [1] = Micro-injection in NTS: BP and HR; assay type: in vivo, rats; settings: for pressor response and HR: NTS micro-injection, 0.03, 0.3 μmol, within 30 minutes after injection
# Excerpt: Micro-injection in NTS. Rats were anesthetized and placed in a David-Kopf stereotaxic instrument. The cerebellum was exposed after removing the skin and occipital bone. […] At the end of experiments, the animals were sacrificed. The brain was removed and sectioned for histological confirmation of the drug application site.
# α2-adrenoceptor = assay: Intra-cisternal antagonism of clonidine-induced hypotension and bradycardia; assay type: in vivo, rats; settings: for hypotensive effect of clonidine: given 15 min before clonidine injection
# Procedure: (§4) Intra-cisternal injections. […] Briefly, rats weighing 250–300 g were anaesthetized with pentobarbital sodium (50 mg kg^−1, i.p.) and mounted in a David-Kopf stereotaxic instrument (Yeh J L. et al., Brain. Res. Bull., 30:641–648, 1993). The calvarium was exposed and a 1 mm diameter trephine hole was drilled 1.8 mm lateral to the coronary and 1.5 mm posterior to the sagittal sutures. A cannula (0.7 mm O.D.) connected to a Hamilton syringe (RN-705, 5051) by PE-50 was advanced 4.7 mm into the brain using the electrode carrier.
# [2] = Peroxyl radical scavenging, B-phycoerythrin/AAPH; assay type: biochemical
# Procedure: The stoichiometric factors of the test compounds with hydrophilic peroxyl radicals were calculated by the equation as mentioned Ascorbic acid was used as a positive control.
# [3] = Intra-cisternal injections: mean arterial BP and HR; assay type: in vivo, rats; settings: for effect on mean arterial BP and HR: eugenosedin-A and trazodone 0.3, 0.03 μmol, yohimbine 0.03 μmol
# Procedure: as §4
# [4] = 3 hours after LPS 10 mg kg^−1 i.v., pretreatment (eugenosedin-A 1 mg kg^−1 i.v.)
# [5] = 5 hours after LPS 10 mg kg^−1 i.v., pretreatment
compound,measurement,setting,value
O=C1O[C@H]([C@@H](O)CO)C(O)=C1O [ascorbic acid],LPS-induced increase in IL-1β,IL-1β,significantly inhibited
same,LPS-induced hypotension,LPS-induced hypotension,inhibited LPS-induced hypotension
same,LPS-induced increase in TNF-α,TNF-α; [4],significantly inhibited
same,LPS-induced production of IFN-γ,IFN-γ,insignificantly enhanced
same,initial hyperglycemic response to LPS,Blood glucose after LPS,inhibited the initial hyperglycemic response to LPS
same,hypoglycemic response to LPS,Blood glucose after LPS,did not reverse the hypoglycemic response
"NCCc1c[nH]c2ccc(O)cc12 [Compound 5-HT, serotonin]",binding affinity for α1 receptors,α1 receptors,lower binding affinities for α1 receptors
same,order of α1 receptor binding potency,α1 receptors,"prazosin >ketanserin >eugenosedin-A >methylsergide, propranolol and 5-HT"
same,order of potency on 5-HT2A receptors,5-HT2A receptor,ketanserin >methylsergide >eugenosedin-A >5-HT >propranolol >prazosin
same,order of α2 receptor binding potency,α2 receptors,prazosin >eugenosedin-A >ketanserin >methylsergide >propranolol and 5-HT
CNCCC(Oc1ccc(C(F)(F)F)cc1)c1ccccc1 (stereo not shown) [fluoxetine],pressor response and HR,[1],"mild, but significant, pressor responses and increased the HR"
O=c1n(CCCN2CCN(c3cccc(Cl)c3)CC2)nc2ccccn12 [trazodone],LPS-induced increase in IL-1β,IL-1β,significantly inhibited
same,development of hypotension after LPS injection and normalization of BP,LPS-induced hypotension,normalized BP within 5 hours
same,first immediate hypotensive phase after LPS,LPS-induced hypotension; pretreatment 0.5 mg kg^−1 i.v.,not affected
same,first immediate hypotensive phase after LPS,LPS-induced hypotension; pretreatment 1 mg kg^−1 i.v.,attenuated it
same,second prolonged hypotensive phase after LPS,LPS-induced hypotension,significantly reduced
same,LPS-induced increase in TNF-α,TNF-α; [4],significantly inhibited
same,LPS-induced increase in TNF-α,TNF-α; [5],significantly reduced
same,pressor response and HR,[1],"mild, but significant, pressor responses and increased the HR"
same,hypotensive effect of clonidine,α2-adrenoceptor,antagonized the hypotensive effect of clonidine
same,"scavenging of AAPH-derived peroxyl radicals (B-phycoerythrin fluorescence, lag time)",[2],did not scavenge peroxyl radicals
same,effect on mean arterial BP and HR,[3],increased mean arterial BP and HR
"Cl.N=C(N)NN [aminoguanidine, aminoguanidine HCl]",LPS-induced increase in IL-1β,IL-1β,significantly inhibited
same,LPS-induced hypotension,LPS-induced hypotension,inhibited LPS-induced hypotension
same,LPS-induced increase in TNF-α,TNF-α; [4],significantly inhibited
same,initial hyperglycemic response to LPS,Blood glucose after LPS,inhibited the initial hyperglycemic response to LPS
same,hypoglycemic response to LPS,Blood glucose after LPS,did not reverse the hypoglycemic response
COC(=O)[C@@H]1[C@H]2C[C@H]3c4[nH]c5ccccc5c4CCN3C[C@@H]2CC[C@@H]1O [yohimbine],LPS-induced increase in IL-1β,IL-1β,significantly inhibited
same,development of hypotension after LPS injection and normalization of BP,LPS-induced hypotension,normalized BP within 5 hours
same,first immediate hypotensive phase after LPS,LPS-induced hypotension; pretreatment 0.5 mg kg^−1 i.v.,not affected
same,first immediate hypotensive phase after LPS,LPS-induced hypotension; pretreatment 1 mg kg^−1 i.v.,attenuated it
same,second prolonged hypotensive phase after LPS,LPS-induced hypotension,significantly reduced
same,LPS-induced increase in TNF-α,TNF-α; [4],significantly inhibited
same,LPS-induced increase in TNF-α,TNF-α; [5],significantly reduced
same,HR increase,"[1]; NTS micro-injection, 0.03 μmol",up to 78 bpm
same,pressor response,"[1]; NTS micro-injection, 0.03 μmol",up to 13 mmHg
same,hypotensive effect of clonidine,α2-adrenoceptor,antagonized the hypotensive effect of clonidine
same,clonidine-induced bradycardia,"α2-adrenoceptor; low dose, 0.03 μmol",did not inhibit clonidine-induced bradycardia
same,LPS-induced production of IFN-γ,IFN-γ,insignificantly enhanced
same,increase of HR,[3]; 0.03 μmol,up to 78 bpm
same,pressor response,[3]; 0.03 μmol,up to 13 mmHg
same,effect on mean arterial BP and HR,[3],increased mean arterial BP and HR
CC[C@@H](CO)NC(=O)[C@@H]1C=C2c3cccc4c3c(cn4C)C[C@H]2N(C)C1 [methysergide],binding affinity for α1 receptors,α1 receptors,lower binding affinities for α1 receptors
same,order of α1 receptor binding potency,α1 receptors,"prazosin >ketanserin >eugenosedin-A >methylsergide, propranolol and 5-HT"
same,binding affinity for α2-adrenoceptors,α2 receptors,had binding affinities for α2-adrenoceptors
same,order of α2 receptor binding potency,α2 receptors,prazosin >eugenosedin-A >ketanserin >methylsergide >propranolol and 5-HT
O=C(c1ccc(F)cc1)C1CCN(CCn2c(=O)[nH]c3ccccc3c2=O)CC1 [ketanserin],order of α1 receptor binding potency,α1 receptors,"prazosin >ketanserin >eugenosedin-A >methylsergide, propranolol and 5-HT"
same,order of potency on 5-HT2A receptors,5-HT2A receptor,ketanserin >methylsergide >eugenosedin-A >5-HT >propranolol >prazosin
same,binding affinity for α2-adrenoceptors,α2 receptors,had binding affinities for α2-adrenoceptors
same,order of α2 receptor binding potency,α2 receptors,prazosin >eugenosedin-A >ketanserin >methylsergide >propranolol and 5-HT
CC(C)NCC(O)COc1cccc2ccccc12 (stereo not shown) [propranolol],order of α1 receptor binding potency,α1 receptors,"prazosin >ketanserin >eugenosedin-A >methylsergide, propranolol and 5-HT"
same,order of α2 receptor binding potency,α2 receptors,prazosin >eugenosedin-A >ketanserin >methylsergide >propranolol and 5-HT
